Key:
DR4 = assay: Disulfide bond-mediated oligomerization, non-reducing immunoblot; assay type: cell-based; conditions: MDA-MB-468 cells, 24 h
Description: (§1) The BT20, BT474, BT549, MCF7, MDA-MB-231, MDA-MB-436, MDA-MB-468, HCC1143, HCC1500, HCC1569, HCC1937, HCC1954, Hs578t, and T47D cells lines were purchased from American Type Culture Collection (ATCC) (Manassas, VA). The HCI-001 cell line was derived from an ER-/PR-/HER2- patient-derived xenograft originally isolated from a patient as described previously (DeRose Y S, et al. Nat Med 2011; 17: 1514-1520). The HCI-001/LVM2 model was derived from the HCI-001 cell line by performing two rounds of selection for liver metastasis, as described previously (Wang M, et al. Cell Death Discovery 2019; 5: 153). Cell lines were grown in Dulbecco's Modified Eagle's Medium (GE Healthcare Life Sciences, Logan, UT) containing 10% fetal bovine serum (10% FBS—DMEM) in a humidified incubator with 5% CO2 at 37° C. Cell lysates were prepared as described previously (Law B K, et al. Mol Cell Biol. 2002; 22: 8184-8198). Immunoblot analysis was performed utilizing the following antibodies purchased from Cell Signaling Technology (Beverly, MA) [Akt, #4691; P-Akt[T308], #13038; ATF4, #11815; CHOP, #2895; Cleaved Caspase 8, #9496; DR4, #42533; DR5, #8074; EGFR, #4267; GRP78, #3177; HER3, #4754; PARP, #9532; PDIA1, #3501; XBP1s, #12782], from Santa Cruz Biotechnology (Santa Cruz, CA) [Actin, sc-47778; AGR2/3, sc-376653; AGR3, sc-390940; ERO1-a, sc-100805; and ERp44, sc-393687], or from Rockland Immunochemicals, Inc. (Limerick, PA), Streptavidin-Alkaline Phosphatase conjugated (SA-AP), S000-05.
(§2) To assess protein disulfide bond-mediated oligomerization, cells were treated with DDAs for 24 h in 10% FBS-DMEM. Cells were subsequently scraped directly into the media and pelleted by centrifugation. Cells were extracted directly into boiling 2×-SDS-Sample Buffer containing 100 mM NEM and boiled for 10 min. Samples were sonicated, followed by centrifugation for 20 min at room temperature. Samples were subsequently analyzed by SDS-PAGE and immunoblot.

EGFR = assay: as above; assay type: cell-based; conditions: MDA-MB-468 cells, 24 h, FIG. 1E right
Description: as §1, §2

[1] = tested on: HER2+ BT474 xenograft tumors; assay: BT474 xenograft tumor study, H&E staining of mammary fat pads/tumors; assay type: in vivo, mice; conditions: 20 mg/kg intraperitoneal, four consecutive days; vehicle tumors showed no necrosis
Method: Breast cancer liver metastasis was initiated in NOD-SCID-gamma (NSG) mice obtained from Jackson Laboratories (Bar Harbor, ME) by injecting 1×10^6 cancer cells into the #4 mammary fat pads as described previously (Wang M, et al. Cell Death Discovery 2019; 5: 153). Mice bearing HCI-001/LVM2 breast tumors were treated once daily for four consecutive days with 20 mg/kg tcyDTDO by oral gavage and livers were collected. Animals bearing HER2+ BT474 tumors were treated with the vehicle or 20 mg/kg dMtcyDTDO or dFtcyDTDO by intraperitoneal injection for four consecutive days. Tissue samples fixed in 4% paraformaldehyde/PBS and paraffin-embedded were sectioned and stained with hematoxylin and eosin (H&E) by the University of Florida Molecular Pathology Core (https://molecular.pathology.ufl.edu/).

ERAP1 = ERAP1 retention/secretion in MDA-MB-468 cells, immunoblot; assay type: cell-based; conditions: MDA-MB-468 stable cell lines expressing ERp44, 24 h, FIG. 4E
Description: as §1, §2

MDA-MB-468 cells = assay: Cell viability (MTT) assay; assay type: cell-based; conditions: FIG. 1D
Method: MTT (3-(4,5-dimethylthiazol-2-yl)-2,5-diphenyltetrazolium bromide) (Biomatik, Wilmington, DE) assays were performed by plating 7,500 cells/well in 10% FBS/DMEM in a 96-well plate, followed by incubation at 37° C. for 24 h. Cells were then treated with vehicle or increasing concentrations of tcyDTDO, dMtcyDTDO, or dFtcyDTDO and incubated at 37° C. for 72 h. Cell media was subsequently removed from each well and MTT assays were initiated by incubating cells with 0.5 mg/ml MTT in PBS for 3 h, followed by removal of the MTT solution and addition of 100 µL of DMSO to each well for 30 min. Absorbance of the MTT formazan product was subsequently measured at 570 and 690 (reference) nm in a plate reader.

ERp44 [2] = biological target: T1, ERp44 (Homo sapiens, UniProt Q9BS26, S61C); assay: ERp44 disulfide bonding with client proteins, non-reducing immunoblot; assay type: cell-based; conditions: MDA-MB-468 cells overexpressing ERp44[S61C], 7.5 μM, 24 h, FIG. 6B
T1 construct: endogenous in cells; host or cells: MDA-MB-468
Method: as §2

ERp44 [3] = biological target: T2, ERp44 (Homo sapiens, UniProt Q9BS26); assay: as above; assay type: cell-based; set-up: endogenous in cells; host or cells: MDA-MB-468; conditions: MDA-MB-468 cells overexpressing wild type ERp44, 7.5 μM, 24 h, FIG. 6B
T2 sequence (Q9BS26 30-406): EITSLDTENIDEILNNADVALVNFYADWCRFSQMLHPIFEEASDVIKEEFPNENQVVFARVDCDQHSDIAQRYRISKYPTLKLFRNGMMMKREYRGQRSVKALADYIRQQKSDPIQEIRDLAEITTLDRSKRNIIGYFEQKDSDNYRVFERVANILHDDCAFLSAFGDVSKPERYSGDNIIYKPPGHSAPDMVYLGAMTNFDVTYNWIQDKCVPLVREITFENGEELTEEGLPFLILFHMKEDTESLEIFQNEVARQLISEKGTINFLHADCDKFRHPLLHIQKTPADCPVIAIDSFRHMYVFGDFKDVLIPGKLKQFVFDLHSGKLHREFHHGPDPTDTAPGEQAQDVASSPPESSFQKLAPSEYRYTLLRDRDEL
Method: as §2

GRP78 = assay: Endoplasmic reticulum stress (ERS) induction, immunoblot; assay type: cell-based; conditions: MDA-MB-468 cells, 24 h
Description: as §1, §2

DR5 = assay: Disulfide bond-mediated oligomerization and levels, non-reducing immunoblot; assay type: cell-based; conditions: MDA-MB-468 cells, 24 h
Description: as §1, §2

[4] = compared with tcyDTDO, FIG. 1E left

T1 sequence (Q9BS26 30-406 S61C): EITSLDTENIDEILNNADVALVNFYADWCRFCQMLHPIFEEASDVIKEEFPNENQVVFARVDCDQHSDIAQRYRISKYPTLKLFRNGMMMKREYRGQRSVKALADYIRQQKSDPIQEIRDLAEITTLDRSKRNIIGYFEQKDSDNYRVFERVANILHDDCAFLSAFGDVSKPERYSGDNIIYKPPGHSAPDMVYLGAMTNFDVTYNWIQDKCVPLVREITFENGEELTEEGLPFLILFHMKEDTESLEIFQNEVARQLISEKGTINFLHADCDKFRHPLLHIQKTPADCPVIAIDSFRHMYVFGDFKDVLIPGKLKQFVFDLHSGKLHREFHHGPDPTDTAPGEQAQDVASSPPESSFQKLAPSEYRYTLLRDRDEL

**Q.** `O=S1(=O)CC2CC(F)C(F)CC2CS1` (centres unmarked) [dFtcyDTDO, difluoro-tcyDTDO] was tested. Which “Concentration at which disulfide-mediated oligomerization of DR4 was detected” value (DR4; FIG. 1E right) did it give?
**A.** The value was 625 nM.

**Q.** What about the “DR4/5 oligomerization at the same concentration (DR4)” value (DR4; [4]) of the same compound?
**A.** The value was “more DR4/5 oligomerization”.

**Q.** And the “Concentration at which disulfide-mediated oligomerization of EGFR was detected” value (EGFR)?
**A.** The value was 625 nM.

**Q.** And the “Tumors in mammary fat pads, H&E histology” value [1]?
**A.** Its value is “tumors were not observed”.

**Q.** And the ERAP1-ERp44 disulfide-bonded dimer (ERAP1)?
**A.** Its ERAP1-ERp44 disulfide-bonded dimer is “reduced”.

**Q.** And the “Potency in cell viability assays relative to tcyDTDO” value (MDA-MB-468 cells)?
**A.** Its value is “approximately two-fold greater potency than tcyDTDO”.

**Q.** What about the “Disruption of S61C ERp44 mutant binding to its clients, versus wild type” value (ERp44 [2]) of the same compound?
**A.** Its value is “less sensitive to disruption of binding to its clients”.

**Q.** What about the “Disulfide bonding of overexpressed ERp44 to client proteins” value (ERp44 [3]) of the same compound?
**A.** Its value is “partially blocked”.

**Q.** What about the “Concentration at which induction of ERS (GRP78 elevation) was detected” value (GRP78; FIG. 1E right) of the same compound?
**A.** Its value is 625 nM.

**Q.** And the “ERS at the same concentration” value (GRP78; [4])?
**A.** The value was “greater ERS”.

**Q.** And the “DR5 upregulation in cells overexpressing C58S or S61C ERp44 mutants” value (DR5; 7.5 μM, FIG. 6B)?
**A.** Its value is “potentiated DR5 upregulation”.

**Q.** And the “Concentration at which oligomerization of DR5 was observed” value (DR5; FIG. 1E right)?
**A.** Its value is 1.25 µM.

**Q.** What about the “DR4/5 oligomerization at the same concentration (DR5)” value (DR5; [4]) of the same compound?
**A.** The value was “more DR4/5 oligomerization”.

**Q.** And the “DR5 levels at the same concentration” value (DR5; [4])?
**A.** The value was “higher DR5 levels”.

From patent publication US20240118281A1, “ANTICANCER COMPOUNDS AND USES THEREOF” (University of Florida Research Foundation, Incorporated, priority 2021, published 2024)
